Results published in PMC2873968, “Novel protein kinase D inhibitors cause potent arrest in prostate cancer cell growth and motility” (BMC Chemical Biology, 2010).

What was measured:
DU145 cells = test: Wound healing assay; assay type: cell-based; details: 25 μM, 24 h
Method: (§1) Wound-induced migration was measured as described previously. Briefly, PC3 or DU145 cells were grown to confluence in 6-well plates. Migration was initiated by scraping the monolayer with a pipette tip, creating a "wound." The indicated concentration of compound was added to the media, and the wound was imaged immediately under an inverted phase-contrast microscope with 10× objective. After 24 h, cells were fixed in methanol and stained with 1% crystal violet, and a final image was taken. The wound gap was measured, and % wound healing was calculated. The average % wound healing was determined based on at least 9 measurements of the wound gap.
(§2) The analogs inhibited wound healing in prostate cancer cells. DU145 cells (A) or PC3 cells (B) were grown to confluence in 6-well plates. The monolayer was wounded and imaged immediately. Cells were then treated with either vehicle (DMSO) or analogs at indicated concentration for 24 hours. Cells were then fixed and stained with 0.5% crystal violet. Percentage wound closure was calculated as an average of 9 determinations for each concentration/compound as described under "Methods." Data shown are the mean ± S.E.M. for three independent experiments. Statistical significance versus the DMSO control was determined by unpaired t-test in GraphPad Prism V. ns, not statistically significant; *, p < 0.05; **, p < 0.01; ***, p < 0.001.

PC3 cells [1] = test: Wound healing assay; assay type: cell-based; details: 25 μM, 24 h
Method: as §1, §2

PKD2 [2] = biological target: T1, PKD2 (Homo sapiens, UniProt Q9BZL6); test: In vitro radiometric PKD kinase assay; assay type: biochemical; set-up: purchased SignalChem; details: for IC50: radiometric kinase assay, mean ± S.E.M.
T1 sequence (Q9BZL6 1-878): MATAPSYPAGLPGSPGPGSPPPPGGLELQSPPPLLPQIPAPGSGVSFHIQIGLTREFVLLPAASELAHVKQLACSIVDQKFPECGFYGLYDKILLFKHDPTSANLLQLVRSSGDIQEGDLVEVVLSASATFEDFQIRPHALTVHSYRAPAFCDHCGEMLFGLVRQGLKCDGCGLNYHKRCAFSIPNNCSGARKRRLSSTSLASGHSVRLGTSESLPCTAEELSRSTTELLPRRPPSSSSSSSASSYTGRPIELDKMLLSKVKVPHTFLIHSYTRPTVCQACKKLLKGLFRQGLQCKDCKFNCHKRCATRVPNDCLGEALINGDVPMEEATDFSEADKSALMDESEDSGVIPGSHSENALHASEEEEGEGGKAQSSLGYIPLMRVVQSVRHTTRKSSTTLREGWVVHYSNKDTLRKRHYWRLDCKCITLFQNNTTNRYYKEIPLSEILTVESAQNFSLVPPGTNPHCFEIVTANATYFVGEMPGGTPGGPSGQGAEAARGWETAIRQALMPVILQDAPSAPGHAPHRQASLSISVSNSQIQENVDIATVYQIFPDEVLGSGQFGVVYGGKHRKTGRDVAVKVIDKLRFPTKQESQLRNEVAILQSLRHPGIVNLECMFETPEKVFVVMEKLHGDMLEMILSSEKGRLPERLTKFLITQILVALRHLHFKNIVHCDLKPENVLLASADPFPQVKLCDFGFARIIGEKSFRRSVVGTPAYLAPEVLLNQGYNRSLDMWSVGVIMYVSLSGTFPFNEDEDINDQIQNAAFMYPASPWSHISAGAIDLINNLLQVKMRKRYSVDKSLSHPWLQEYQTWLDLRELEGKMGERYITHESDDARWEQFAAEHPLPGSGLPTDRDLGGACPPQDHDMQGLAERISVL
Method: In vitro radiometric kinase assays were conducted as previously described. Briefly, 1 μCi [γ-^32P] ATP (PerkinElmer Life Sciences), 70 μM ATP, 50 ng purified recombinant human PKD1 (Biomol International, Plymouth Meeting, PA), PKD2 (SignalChem, Richmond, BC, Canada), or CAMKIIα (Enzo Life Sciences) or 75 ng PKD3 (Enzo Life Sciences), and 2.5 μg syntide-2 (Sigma) in 50 μl kinase buffer containing 50 mM Tris-HCl, pH 7.5, 4 mM MgCl2, and 10 mM β-mercaptoethanol. For the CAMK assay, 0.5 mM CaCl2 and 30 ng/μl calmodulin were pre-incubated for 10 min on ice, and then added to each reaction mixture. The reaction was incubated at 30°C for 10 min, and 25 μl of the reaction mixture was then spotted onto Whatman P81 filter paper (Whatman Inc., Clifton, NJ). The filter papers were washed 3 times in 0.5% phosphoric acid, air-dried, and counted using a Beckman LS6500 multipurpose scintillation counter (Beckman).
The in vitro inhibitory activities of the novel compounds toward PKD were determined using radiometric PKD kinase activity assays. Recombinant human PKD1, -2, or -3 was incubated with the substrate, syntide-2, in the presence of 10 different concentrations of each compound. IC50 values were determined for each compound by plotting percent PKD activity versus compound concentration for each point.

PC3 cells [3] = test: Cyclin D1 and cyclin D3 levels (Western blot); assay type: cell-based
PKCα = biological target: T2, PKCα (Homo sapiens, UniProt P17252); set-up: method as in PMID 18829454; details: previously reported; cited from earlier work
T2 construct: purchased Cell Signaling Technology and Calbiochem

CAMKIIα = biological target: T3, CAMKIIα (Homo sapiens, UniProt Q9UQM7); set-up: method as in PMID 18829454; details: previously reported; cited from earlier work
T3 construct: purchased Enzo Life Sciences

[4] = system: protein kinase B (AKT/PKB); set-up: method as in PMID 18829454; details: previously reported; cited from earlier work
ABL = ABL (Homo sapiens, UniProt P00519); test: Kinase profiling, single-dose in vitro kinase assay (Caliper Life Sciences); details: read-out: Average % Inhibition ABL
AMPK = test: as above; details: 10 μM
c-Raf = c-Raf (Homo sapiens, UniProt P04049); test: as above; details: read-out: Average % Inhibition c-Raf
FGFR1 = FGFR1 (Homo sapiens, UniProt P11362); test: as above; details: read-out: Average % Inhibition FGFR1
p70S6K = p70S6K (Homo sapiens, UniProt P23443); test: as above; details: read-out: Average % Inhibition p70S6K
PKD2 [5] = biological target: T1, PKD2; test: as above; details: read-out: Average % Inhibition PKD2

p70S6K, sequence (P23443 whole entry): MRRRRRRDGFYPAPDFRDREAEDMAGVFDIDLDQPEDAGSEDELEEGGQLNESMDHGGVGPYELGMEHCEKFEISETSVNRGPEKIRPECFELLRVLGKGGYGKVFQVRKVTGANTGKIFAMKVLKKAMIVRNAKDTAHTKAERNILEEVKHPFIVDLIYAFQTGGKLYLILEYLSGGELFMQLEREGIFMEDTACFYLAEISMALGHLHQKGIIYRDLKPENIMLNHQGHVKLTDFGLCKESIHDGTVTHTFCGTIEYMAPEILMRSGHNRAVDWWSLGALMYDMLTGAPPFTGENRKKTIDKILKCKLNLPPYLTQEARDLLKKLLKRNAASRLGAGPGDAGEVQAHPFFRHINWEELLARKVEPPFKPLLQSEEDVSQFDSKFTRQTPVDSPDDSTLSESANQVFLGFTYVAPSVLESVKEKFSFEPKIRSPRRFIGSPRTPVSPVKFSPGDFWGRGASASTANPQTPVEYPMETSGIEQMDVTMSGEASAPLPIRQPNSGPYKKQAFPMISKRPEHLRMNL
ABL, sequence (P00519 whole entry): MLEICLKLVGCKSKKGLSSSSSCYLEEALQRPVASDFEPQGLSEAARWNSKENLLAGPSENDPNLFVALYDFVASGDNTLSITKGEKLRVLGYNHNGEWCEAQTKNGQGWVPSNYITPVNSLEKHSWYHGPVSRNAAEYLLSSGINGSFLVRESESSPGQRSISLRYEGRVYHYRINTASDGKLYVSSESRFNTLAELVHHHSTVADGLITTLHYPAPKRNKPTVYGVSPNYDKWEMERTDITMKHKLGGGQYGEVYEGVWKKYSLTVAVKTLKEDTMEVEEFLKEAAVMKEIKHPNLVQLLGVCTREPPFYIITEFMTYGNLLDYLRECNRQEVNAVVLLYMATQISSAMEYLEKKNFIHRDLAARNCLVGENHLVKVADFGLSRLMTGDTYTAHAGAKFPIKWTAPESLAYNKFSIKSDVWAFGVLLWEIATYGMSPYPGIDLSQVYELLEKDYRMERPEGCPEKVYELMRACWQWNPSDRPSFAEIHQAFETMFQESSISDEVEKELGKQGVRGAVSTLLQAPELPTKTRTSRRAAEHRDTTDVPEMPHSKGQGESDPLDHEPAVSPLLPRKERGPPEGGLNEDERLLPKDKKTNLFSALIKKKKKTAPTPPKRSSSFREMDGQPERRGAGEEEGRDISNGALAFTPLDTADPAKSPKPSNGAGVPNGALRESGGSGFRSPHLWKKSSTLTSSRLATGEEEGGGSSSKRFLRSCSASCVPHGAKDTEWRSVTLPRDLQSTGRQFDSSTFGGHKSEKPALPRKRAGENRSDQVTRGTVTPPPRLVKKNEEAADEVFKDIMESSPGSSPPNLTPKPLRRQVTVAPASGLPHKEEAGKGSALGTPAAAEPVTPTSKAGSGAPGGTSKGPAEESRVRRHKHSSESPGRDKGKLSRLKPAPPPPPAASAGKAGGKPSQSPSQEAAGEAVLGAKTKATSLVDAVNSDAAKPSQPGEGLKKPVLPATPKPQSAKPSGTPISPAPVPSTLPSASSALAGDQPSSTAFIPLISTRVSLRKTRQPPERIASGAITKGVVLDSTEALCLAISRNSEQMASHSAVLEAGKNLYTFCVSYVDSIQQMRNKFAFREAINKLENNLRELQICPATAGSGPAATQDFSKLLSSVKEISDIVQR
FGFR1, sequence (P11362 22-822): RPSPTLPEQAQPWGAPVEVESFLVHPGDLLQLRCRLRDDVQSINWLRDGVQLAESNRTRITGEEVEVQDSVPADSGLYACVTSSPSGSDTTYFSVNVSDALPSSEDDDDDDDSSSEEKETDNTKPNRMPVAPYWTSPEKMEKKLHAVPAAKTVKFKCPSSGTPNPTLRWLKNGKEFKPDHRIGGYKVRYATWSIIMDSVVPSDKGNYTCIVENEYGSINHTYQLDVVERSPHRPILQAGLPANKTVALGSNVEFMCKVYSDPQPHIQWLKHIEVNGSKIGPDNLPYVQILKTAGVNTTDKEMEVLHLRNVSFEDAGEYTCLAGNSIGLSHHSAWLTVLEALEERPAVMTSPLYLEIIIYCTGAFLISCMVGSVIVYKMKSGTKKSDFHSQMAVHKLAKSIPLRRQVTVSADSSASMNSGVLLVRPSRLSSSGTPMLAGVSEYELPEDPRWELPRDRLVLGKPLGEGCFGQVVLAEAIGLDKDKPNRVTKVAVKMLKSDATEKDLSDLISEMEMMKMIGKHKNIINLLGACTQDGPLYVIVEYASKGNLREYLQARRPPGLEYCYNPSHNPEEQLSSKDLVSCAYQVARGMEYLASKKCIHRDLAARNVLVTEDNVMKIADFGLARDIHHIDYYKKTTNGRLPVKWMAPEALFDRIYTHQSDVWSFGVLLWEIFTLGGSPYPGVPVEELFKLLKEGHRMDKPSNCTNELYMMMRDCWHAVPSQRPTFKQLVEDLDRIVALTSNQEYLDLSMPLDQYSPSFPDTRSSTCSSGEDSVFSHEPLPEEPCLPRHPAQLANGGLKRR
c-Raf, sequence (P04049 whole entry): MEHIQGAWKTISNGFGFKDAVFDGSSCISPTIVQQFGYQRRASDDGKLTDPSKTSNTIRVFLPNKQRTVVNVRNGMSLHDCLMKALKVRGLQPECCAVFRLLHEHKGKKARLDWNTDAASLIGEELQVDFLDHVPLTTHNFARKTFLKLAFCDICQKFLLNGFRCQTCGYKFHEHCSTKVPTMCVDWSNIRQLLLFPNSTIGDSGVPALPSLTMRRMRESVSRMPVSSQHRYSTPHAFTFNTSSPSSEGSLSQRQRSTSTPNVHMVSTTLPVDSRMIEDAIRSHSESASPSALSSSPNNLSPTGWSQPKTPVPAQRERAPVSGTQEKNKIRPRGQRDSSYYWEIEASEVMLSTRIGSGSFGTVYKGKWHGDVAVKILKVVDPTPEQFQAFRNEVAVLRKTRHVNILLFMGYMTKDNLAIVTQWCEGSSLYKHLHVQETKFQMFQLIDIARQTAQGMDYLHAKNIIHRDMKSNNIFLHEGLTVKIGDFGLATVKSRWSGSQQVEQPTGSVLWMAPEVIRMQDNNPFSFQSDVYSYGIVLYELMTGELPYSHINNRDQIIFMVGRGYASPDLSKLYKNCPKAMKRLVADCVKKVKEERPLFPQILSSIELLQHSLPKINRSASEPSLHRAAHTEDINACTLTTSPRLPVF

O=C1NCCSc2c1sc1ccc(O)cc21 [kb-NB142-70]
wound closure (DU145 cells): 25-35%
wound closure (PC3 cells [1]): 25-35%
fold stronger inhibition of PKD2 than CID755673 (PKD2 [2]): about 4 fold
IC50 (PKD2 [2]): 58.7 ± 4.2 nM

O=C1NCCSc2c1sc1ccc(O)c(I)c21 [kb-NB165-31]
wound closure (DU145 cells): 55-60%
wound closure (PC3 cells [1]): 55-60%
IC50 (PKD2 [2]): 163 ± 20.5 nM

O=C1NCCCc2c1oc1ccc(O)cc21 [CID755673, 7-Hydroxy-2,3,4,5-tetrahydro-[1]benzoxolo[2,3-c]azepin-1-one]
cyclin D1 and D3 levels (PC3 cells [3]; 48 hrs): induced cyclin D1 and D3 expression in a concentration-dependent manner
inhibition of PKCα (PKCα): did not inhibit
inhibition of CAMKIIα (CAMKIIα): did not inhibit
inhibition of protein kinase B (AKT/PKB) [4]: did not inhibit
inhibition at 10 µM (ABL): 8%
Average % Inhibition AMPK (AMPK): 35%
inhibition at 10 µM (c-Raf): 2%
inhibition at 10 µM (FGFR1): 16%
inhibition at 10 µM (p70S6K): 44%
inhibition at 10 µM (PKD2 [5]): 95%

COc1ccc2sc3c(c2c1)SCCNC3=O [kb-NB165-09]
wound closure (DU145 cells): 25-35%
wound closure (PC3 cells [1]): 25-35%
IC50 (PKD2 [2]): 142 ± 7.4 nM

O=C1NCCCSc2c1sc1ccc(O)cc21 [kb-NB165-92]
cell death (PC3 cells [3]; 10 μM): caused significant cell death
IC50 (PKD2 [2]): 101 ± 10.9 nM
fold reduction of potency for PKD2 (PKD2 [2]; versus kb-NB142-70): 2-4 fold

COc1ccc2sc3c(c2c1)SCCCNC3=O [kb-NB184-02]
IC50 (PKD2 [2]): 463 ± 38.2 nM
